Results as given in patent publication US20200138023A1, “MICROBICIDAL COMPOSITION” (DDP Specialty Electronic Materials US 8, LLC, priority 2017, published 2020).
Like-named read-outs stand apart in the source and are kept apart here.

Columns and labels:
[1] = test system: Aspergillus brasiliensis ATCC 16404; experiment: Synergy test, high resolution MIC microtiter plate assay, Potato Dextrose Broth; type: cell-based; conditions: A. brasiliensis ATCC 16404, PDB, contact time 7 days; for SI (Synergy Index, Qa/QA+Qb/QB): SI less than one = synergy; for MIC: Aspergillus brasiliensis, ATCC16404, 168 h, 25° C.
Text: (§1) One measure of synergism is the industrially accepted method described by Kull, F. C.; Eisman, P. C.; Sylwestrowicz, H. D. and Mayer, R. L., in Applied Microbiology 9:538-541 (1961), using the ratio determined by the formula:
(§2) Qa/QA+Qb/QB=Synergy Index (“SI”)
(§3) wherein: • QA=concentration of compound A (first component) in ppm, acting alone, which produced an end point (MIC of Compound A). • Qa=concentration of compound A in ppm, in the mixture, which produced an end point. • QB=concentration of compound B (second component) in ppm, acting alone, which produced an end point (MIC of Compound B). • Qb=concentration of compound B in ppm, in the mixture, which produced an end point.
(§4) When the sum of Qa/QA and Qb/QB is greater than one, antagonism is indicated. […] The lower the SI, the greater is the synergy shown by that particular mixture. The minimum inhibitory concentration (MIC) of a microbicide is the lowest concentration tested under a specific set of conditions that prevents the growth of the tested microorganisms.
(§5) Synergy tests were conducted using standard microtiter plate assays with media designed for optimal growth of the test microorganism. Potato Dextrose Broth (PDB medium) was used for testing yeast and mold. In this method, a wide range of combinations of microbicides and other personal care raw materials was tested by conducting high resolution MIC assays in the presence of lactic acid. High resolution MICs were determined by adding varying amounts of microbicide to one column of a microtitre plate and doing subsequent […] dilutions using an automated liquid handling system to obtain a series of closely spaced endpoints.
(§6) The synergy of the combinations of the present invention was determined against a yeast, Candida albicans (C. albicans—ATCC 10231) and a mold, Aspergillus brasiliensis (A. brasiliensis—ATCC 16404). The yeast and mold were used at concentrations of 5×10^5 cells per mL. These microorganisms are representative of natural contaminants in many consumer and industrial applications.
(§7) In this test, First Component (A) was lactic acid and the Second Component (B) was caprylic acid.
(§8) First Component (A)=Lactic acid (LA) Second Component (B)=Caprylic acid (CA) • Table 1: Aspergillus brasiliensis • ATCC 16404 • Potato Dextrose Broth • Contact Time=7 days • Table 2: Candida albicans • ATCC 10231 • Potato Dextrose Broth • Contact Time=48 hours

[2] = test system: Candida albicans ATCC 10231; experiment: as above; type: cell-based; conditions: C. albicans ATCC 10231, PDB, contact time 48 hours
Text: as §1, §2, §3, §4, §5, §6, §7, §8

Compound	SI (Synergy Index, Qa/QA+Qb/QB) [1]	MIC ([1]; caprylic acid alone, read-out: Caprylic Acid, ppm: MIC for caprylic acid alone (QB)) [µg/mL]	SI (Synergy Index, Qa/QA+Qb/QB) ([2]; SI less than one = synergy)	MIC ([2]; Candida albicans, ATCC10231, caprylic acid alone, 25° C., read-out: Caprylic Acid, ppm: MIC for caprylic acid alone (QB)) [µg/mL]	MIC ([1]; lactic acid alone, read-out: Lactic Acid, ppm: MIC for lactic acid alone (QA)) [µg/mL]
CCCCCCCC(=O)O [Caprylic Acid, octanoic acid]	1.00	10000	1.00	60	–
CC(O)C(=O)O (stereo not drawn) [Lactic Acid, 2-hydroxypropanoic acid]	1.00	–	–	–	30000
